These results are taken from US8563565B2, “Pyrazoloquinoline derivatives” (Eisai R&D Management Co., Ltd., priority 2011, dated 2013).

The target of the experiment is T1, human recombinant PDE9 protein (Homo sapiens, UniProt O76083).
T1 construct: His-tag (inferred from the Ni column purification; a myc His-tag vector is named only for the HEK293 expression check); made in house; host or cells: silkworm (pYNG vector, Katakura Industries)
T1 sequence (O76083 whole entry): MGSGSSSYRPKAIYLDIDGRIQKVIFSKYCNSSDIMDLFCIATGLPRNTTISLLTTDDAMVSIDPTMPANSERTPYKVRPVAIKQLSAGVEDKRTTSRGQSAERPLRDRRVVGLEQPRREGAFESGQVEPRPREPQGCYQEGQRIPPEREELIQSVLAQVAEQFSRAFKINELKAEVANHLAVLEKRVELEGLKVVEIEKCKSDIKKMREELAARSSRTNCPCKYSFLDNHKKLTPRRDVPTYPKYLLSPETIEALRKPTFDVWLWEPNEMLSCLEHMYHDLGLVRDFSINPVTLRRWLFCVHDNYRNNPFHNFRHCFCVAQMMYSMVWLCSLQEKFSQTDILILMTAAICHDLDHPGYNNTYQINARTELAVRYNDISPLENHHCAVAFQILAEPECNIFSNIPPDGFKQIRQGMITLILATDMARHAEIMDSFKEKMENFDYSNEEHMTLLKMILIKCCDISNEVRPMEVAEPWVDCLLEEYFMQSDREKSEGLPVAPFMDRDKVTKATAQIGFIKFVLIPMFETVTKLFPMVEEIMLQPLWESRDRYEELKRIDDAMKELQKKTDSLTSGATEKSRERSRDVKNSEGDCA
In words: PDE9 inhibitory activity test (measurement of PDE9 inhibitory action, [3H]-cGMP). Conditions: PDE9 IC50, human recombinant PDE9, 30° C., 10 min. Format: biochemical. From the text:
1) Preparation of a Human Recombinant PDE9 Protein
An hsPDE9A 1cDNA fragment was amplified by being based on a base sequence (Accession No.: AF048837) of the hsPDE9A1 registered on GenBank data base, and by using the following sequences (Hokkaido System Science Co., Ltd.) as a primer and Human hippocampus cDNA library (Clontech Laboratories, Inc.) as a template DNA, and using Pfu50 DNA polymerase (Invitrogen Corp.), and by a polymerase chain reaction (PCR) of the following condition.
The condition of PCR: [96° C., 5 min]×1 cycle, [(96° C., 10 sec), (57° C., 5 sec), (72° C., 2 min)]×30 cycles
The obtained hsPDE9A 1 cDNA fragment was incorporated in a TOPO-TA cloning vector (Invitrogen Corp.), and the base sequence was checked; and thereafter, the resultant was transfected in a pcDNA 3.1/myc His-tag vector (Invitrogen Corp.) to thereby make a human PDE9 expression vector for mammal cells. The human PDE9 expression vector for mammal cells was transfected with transient expression to an HEK293 cell by using a LIPOFETAMINE 2000 Reagent (Gibco). It was confirmed by Western blot method that the PDE9A expressed in the HEK293 cell, and then, the human PDE9A 1cDNA fragment was transfected in a pYNG vector (Katakura Industries Co., Ltd.) to thereby make an expression vector for insect cells. A supernatant of homogenized silk worm in which a large amount of PDE9 was expressed was purified by an equilibrated Ni column using a buffer A (20 mmol/L Tris-HCl, pH: 8.0, 1 mmol/L DTT, 10 mmol/L imidazole). After 1 hour of mixing of the supernatant and the Ni column, cleaning was carried out using a buffer B (20 mmol/L Tris-HCl, pH: 8.0, 1 mmol/L […]), and elution was carried out using a buffer C (20 mmol/L Tris-HCl, pH: 8.0, 1 mmol/L DTT, 100 mmol/L imidazole). An elution fraction was preparatively collected to thereby obtain a PDE9 enzyme solution.
2) Measurement of PDE9 Inhibitory Action
To 100 μL of a buffer D (40 mmol/L Tris-HCl, pH: 7.4, 10 mmol/L MgCl2, 1 mM DTT, 2 μM cGMP) solution containing [^3H]-cGMP ([…]/mL), 10 μL of a compound solution for evaluation (a solution in which a compound was dissolved in DMSO and diluted so that the DMSO concentration became 5%) and 90 μL of a solution prepared by diluting the PDE9 enzyme solution prepared in the above with a buffer E (40 mmol/L Tris-HCl, pH: 7.4, 10 mmol/L MgCl2, 1 mM DTT, 1 mmol/L EGTA) were added under ice cooling. The resultant mixed solution was incubated at 30° C. for 10 min, and thereafter heated for 2 min in boiled water to stop the enzyme reaction of the PDE9. Then, the resultant was returned to room temperature; 50 μL of 5′-Nucleotidase (Biomol GmbH, 10 units/mL) was added thereto; and the resultant was incubated at 30° C. for 10 min to thereby convert [^3H]-5′-GMP formed in the previous reaction to [^3H]-guanosine. 500 μL of an anion exchange resin (Bio-Rad AG1-X2 resin, mesh size: 200-400, H2O:resin=2:1) was added to the resultant reaction liquid, and allowed to stand for 10 min, and thereafter centrifuged (2,000 rpm, 10 min); and a supernatant in which the [^3H]-guanosine was present was transferred to a LumaPlate (PerkinElmer, Inc.), and the radioactivity was measured by a TopCount NXT microplate scintillation and luminescence counter (PerkinElmer, Inc.).
The inhibition percentage of the evaluation compound was calculated using the following expression, taking the radioactivity of a control containing no evaluation compound to be (A), the radioactivity of a blank containing no enzyme to be (B), and the radioactivity of the evaluation compound to be (C). Inhibition percentage=100−{[(C)−(B)]/[(A)−(B)]}×100(%)
The IC50 value for PDE9 of the evaluation compound was determined from inhibition percentage for various concentrations.
For `Cc1cc(CF)nc(C)c1-c1ccc2c(c1)[nH]c(=O)c1cnn(C3CCOCC3)c12` [Example 19], the IC50 was found to be 0.013 µM.

As for `Cc1cc(C)c(-c2ccc3c(c2)[nH]c(=O)c2cnn(C4CCOCC4)c23)c(CF)n1` [Example 20], the half-inhibitory concentration (IC50) stood at 0.0289 µM.

As to `Cc1cc(C)c(-c2ccc3c(c2)[nH]c(=O)c2cnn(C4CCOCC4)c23)c(C(F)F)n1` [Example 21], the 50% inhibitory concentration (IC50) amounted to 0.0539 µM. Take `COc1cc(CF)c(-c2ccc3c(c2)[nH]c(=O)c2cnn(C4CCOCC4)c23)c(C)n1` [Example 22]: the 50% inhibitory concentration (IC50) worked out at 0.0523 µM.

As to `CCOc1nccc(C)c1-c1ccc2c(c1)[nH]c(=O)c1cnn(C3CCOCC3)c12` [Example 23, 7-(2-ethoxy-4-methylpyridin-3-yl)-1-(tetrahydro-2H-pyran-4-yl)-1H-pyrazolo[4,3-c]quinolin-4(5H)-one], the IC50 stood at 0.00951 µM. For the compound `Cc1cc(C2CCOCC2)cc(C)c1-c1ccc2c(c1)[nH]c(=O)c1cnn(C3CCOCC3)c12` [Example 40, 7-[2,6-dimethyl-4-(tetrahydro-2H-pyran-4-yl)phenyl]-1-(tetrahydro-2H-pyran-4-yl)-1H-pyrazolo[4,3-c]quinolin-4(5H)-one], the IC50 is 0.00321 µM.

`COc1cc(C)c(-c2ccc3c(c2)[nH]c(=O)c2cnn(C4COCCOC4)c23)c(C)c1` [Example 44]: the 50% inhibitory concentration (IC50) amounted to 0.0121 µM.

`COc1nc(C)cc(C)c1-c1ccc2c(c1)[nH]c(=O)c1cnn(C3COCCOC3)c12` [Example 45, 1-(1,4-dioxepan-6-yl)-7-(2-methoxy-4,6-dimethylpyridin-3-yl)-1H-pyrazolo[4,3-c]quinolin-4(5H)-one]: the half-inhibitory concentration (IC50) was determined as 0.00333 µM.

As for `COc1cc(C)c(-c2ccc3c(c2)[nH]c(=O)c2cnn(C4COCCOC4)c23)c(C)n1` [Example 46], the half-inhibitory concentration (IC50) came to 0.0181 µM. On to `COc1nccc(C)c1-c1ccc2c(c1)[nH]c(=O)c1cnn(C3COCCOC3)c12` [Example 47], for which the IC50 was 0.00567 µM. In the case of `Cc1cnc(OC(C)C)c(C)c1-c1ccc2c(c1)[nH]c(=O)c1cnn([C@H]3CCOC3)c12` [Example 48, (S)-7-(2-isopropyloxy-3,5-dimethylpyridin-4-yl)-1-(tetrahydrofuran-3-yl)-1H-pyrazolo[4,3-c]quinolin-4(5H)-one] it was 0.00835 µM; in that of `Cc1cnc(OC(F)F)c(C)c1-c1ccc2c(c1)[nH]c(=O)c1cnn([C@H]3CCOC3)c12` [Example 49], 0.0122 µM; in that of `CCOc1ncc(C)c(-c2ccc3c(c2)[nH]c(=O)c2cnn([C@H]4CCOC4)c23)c1C` [Example 50], 0.00651 µM. In the case of `COc1nc(C)cc(C)c1-c1cc2[nH]c(=O)c3cnn(C4CCOCC4)c3c2cc1F` [Example 52, 8-fluoro-7-(2-methoxy-4,6-dimethylpyridin-3-yl)-1-(tetrahydro-2H-pyran-4-yl)-1H-pyrazolo[4,3-c]quinolin-4(5H)-one], the IC50 amounted to 0.00477 µM.

Turning to `CCc1c(OC)ncc(C)c1-c1ccc2c(c1)[nH]c(=O)c1cnn([C@H]3CCOC3)c12` [Example 56, (S)-7-(3-ethyl-2-methoxy-5-methylpyridin-4-yl)-1-(tetrahydrofuran-3-yl)-1H-pyrazolo[4,3-c]quinolin-4(5H)-one], the IC50 was found to be 0.0101 µM.

`COc1ncc(C)c(-c2cc3[nH]c(=O)c4cnn([C@@H]5CCOC5)c4c3cc2F)c1C` [Example 57, (R)-8-fluoro-7-(2-methoxy-3,5-dimethylpyridin-4-yl)-1-(tetrahydrofuran-3-yl)-1H-pyrazolo[4,3-c]quinolin-4(5H)-one]: the IC50 turned out to be 0.0439 µM. As for `COc1nc(C)cc(C)c1-c1cc2[nH]c(=O)c3cnn([C@@H]4CCOC4)c3c2cc1F` [Example 58], the figure is 0.0117 µM. On to `COc1cc(C)c(-c2cc3[nH]c(=O)c4cnn([C@@H]5CCOC5)c4c3cc2F)c(C)n1` [Example 59], for which the IC50 was determined as 0.0715 µM.
